Source: patent US20170355687A1, “ANTIBACTERIAL BENZOTHIAZOLE DERIVATIVES” (Actelion Pharmaceuticals Ltd, priority 2014, published 2017)
Converted amounts (≈) assume the structure as drawn. Structures can show the parent of a compound that is named as a salt. Where two headings read alike, the source gives them in different places.

Experiments:
Assay in all cases: Bacterial growth minimal inhibitory concentration, microdilution in cation-adjusted Mueller-Hinton Broth (CLSI M7-A7)
Assay type in all cases: cell-based
[1] = tested on: P. aeruginosa ATCC27853; settings: Pseudomonas aeruginosa
Method: (§1) Minimal Inhibitory Concentrations (MICs; mg/L) were determined in cation-adjusted Mueller-Hinton Broth by a microdilution method following the description given in “Methods for Dilution Antimicrobial Susceptibility Tests for Bacteria that Grow Aerobically”, Approved standard, 7th ed., Clinical and Laboratory Standards Institute (CLSI) Document M7-A7, Wayne, Pa., USA (2006).
(§2) All Example compounds were tested against several Gram-positive and Gram-negative bacteria. […] K pneumoniae A-651 is a multiply-resistant (in particular quinolone-resistant) strain, while E. coli ATCC25922 and P. aeruginosa ATCC27853 are quinolone-sensitive strains.

[2] = tested on: E. coli ATCC25922; settings: Escherichia coli
Method: as §1, §2

[3] = tested on: K. Pneumoniae A-651; settings: Klebsiella pneumoniae, read-out: MIC for K. Pneumoniae A-651
Method: as §1, §2

[4] = ATCC27853, quinolone-sensitive strain, read-out: MIC for P. aeruginosa ATCC27853
[5] = ATCC25922, quinolone-sensitive strain, read-out: MIC for E. coli ATCC25922
[6] = multiply-resistant (in particular quinolone-resistant) strain

For COc1ccc(-c2ccc3nc(CCC(C)(C(=O)NO)S(C)(=O)=O)sc3c2)cc1 (racemic) [RE1, (RS)-N-hydroxy-4-(6-(4-methoxyphenyl)benzo[d]thiazol-2-yl)-2-methyl-2-(methylsulfonyl)butanamide], the MIC [1, 4] was 16 µg/mL (≈ 36.8 µM), the MIC [2, 5] was 0.25 µg/mL (≈ 0.575 µM) and the MIC [3, 6] was 2 µg/mL (≈ 4.6 µM).

Work on CN(C)CC#CC#Cc1ccc2nc(CC[C@](C)(C(=O)NO)S(C)(=O)=O)sc2c1 [Example 17, (R)-4-(6-(5-(dimethylamino)penta-1,3-diyn-1-yl)benzo[d]thiazol-2-yl)-N-hydroxy-2-methyl-2-(methylsulfonyl)butanamide] yielded an MIC [1, 4] of 2 µg/mL (≈ 4.61 µM), an MIC [2, 5] of 0.125 µg/mL (≈ 0.288 µM) and an MIC [3, 6] of 0.25 µg/mL (≈ 0.577 µM).

C[C@@](CCc1nc2ccc(C#CC#C[C@H](O)CO)cc2s1)(C(=O)NO)S(C)(=O)=O [Example 5, (R)-4-(6-((S)-5,6-dihydroxyhexa-1,3-diyn-1-yl)benzo[d]thiazol-2-yl)-N-hydroxy-2-methyl-2-(methylsulfonyl)butanamide] showed an MIC [1, 4] of 1 µg/mL (≈ 2.29 µM), an MIC [2, 5] of 1 µg/mL (≈ 2.29 µM) and an MIC [3, 6] of 8 µg/mL (≈ 18.3 µM).

With CC(CCc1nc2ccc(C#Cc3ccc(C4(N)COC4)cc3)cc2s1)(C(=O)NO)S(C)(=O)=O.Cc1ccc(S(=O)(=O)O)cc1 (racemic) [RE3, (RS)-4-(6-((4-(3-aminooxetan-3-yl)phenyl)ethynyl)-benzo[d]thiazol-2-yl)-N-hydroxy-2-methyl-2-(methylsulfonyl)butanamide 4-methyl-benzenesulfonate] the MIC [1, 4] was 8 µg/mL, the MIC [2, 5] was 4 µg/mL and the MIC [3, 6] was 1 µg/mL.

C[C@@](CCc1nc2ccc(C#CC#CC3(N)COC3)cc2s1)(C(=O)NO)S(C)(=O)=O [Example 9, (R)-4-(6-((3-aminooxetan-3-yl)buta-1,3-diyn-1-yl)benzo[d]thiazol-2-yl)-N-hydroxy-2-methyl-2-(methylsulfonyl)butanamide] gave an MIC [1, 4] of 2 µg/mL (≈ 4.47 µM), an MIC [2, 5] of 1 µg/mL (≈ 2.23 µM) and an MIC [3, 6] of 2 µg/mL (≈ 4.47 µM).

For CC(CCc1nc2ccc(C#CC#CCO)cc2s1)(C(=O)NO)S(C)(=O)=O (racemic) [RE4, (RS)-N-hydroxy-4-(6-(5-hydroxypenta-1,3-diyn-1-yl)benzo[d]thiazol-2-yl)-2-methyl-2-(methylsulfonyl)butanamide], the MIC [1, 4] was 1 µg/mL (≈ 2.46 µM), the MIC [2, 5] was 0.5 µg/mL (≈ 1.23 µM) and the MIC [3, 6] was 8 µg/mL (≈ 19.7 µM).

Compound C[C@@](CCc1nc2ccc(C#Cc3ccc(C4(O)COC4)cc3)cc2s1)(C(=O)NO)S(C)(=O)=O [Example 3, (R)-N-hydroxy-4-(6-((4-(3-hydroxyoxetan-3-yl)phenyl)ethynyl)benzo[d]thiazol-2-yl)-2-methyl-2-(methylsulfonyl)butanamide] has an MIC [1, 4] of 8 µg/mL (≈ 16 µM), an MIC [2, 5] of 4 µg/mL (≈ 7.99 µM) and an MIC [3, 6] of 1 µg/mL (≈ 2 µM).

With C[C@@](CCc1nc2ccc(C#Cc3ccc(C4(CO)CC4)cc3)cc2s1)(C(=O)NO)S(C)(=O)=O [Example 11, (R)-N-hydroxy-4-(6-((4-(1-(hydroxymethyl)cyclopropyl)phenyl)ethynyl)benzo[d]thiazol-2-yl)-2-methyl-2-(methylsulfonyl)butanamide] the MIC [1, 4] was 4 µg/mL (≈ 8.02 µM), the MIC [2, 5] was 0.125 µg/mL (≈ 0.251 µM) and the MIC [3, 6] was 0.5 µg/mL (≈ 1 µM).

C[C@@](CCc1nc2ccc(C#CC#CC3CN(C(=O)CO)C3)cc2s1)(C(=O)NO)S(C)(=O)=O [Example 25, (R)-N-hydroxy-4-(6-((1-(2-hydroxyacetyl)azetidin-3-yl)buta-1,3-diyn-1-yl)benzo[d]thiazol-2-yl)-2-methyl-2-(methylsulfonyl)butanamide] was tested, and the MIC [1, 4] was 1 µg/mL (≈ 2.04 µM), the MIC [2, 5] was 0.5 µg/mL (≈ 1.02 µM) and the MIC [3, 6] was 1 µg/mL (≈ 2.04 µM).

For C[C@]1(CO)C[C@@H]1C#CC#Cc1ccc2nc(CC[C@](C)(C(=O)NO)S(C)(=O)=O)sc2c1 [Example 26, (R)-N-hydroxy-4-(6-(((1R,2S)-2-(hydroxymethyl)-2-methylcyclopropyl)buta-1,3-diyn-1-yl)benzo[d]thiazol-2-yl)-2-methyl-2-(methylsulfonyl)butanamide], the MIC [1, 4] was 0.5 µg/mL (≈ 1.09 µM), the MIC [2, 5] was 0.063 µg/mL (≈ 0.137 µM) and the MIC [3, 6] was 0.125 µg/mL (≈ 0.271 µM).

C[C@@](CCc1nc2ccc(C#CC#CC3(CO)CC3)cc2s1)(C(=O)NO)S(C)(=O)=O [Example 8, (R)-N-hydroxy-4-(6-((1-(hydroxymethyl)cyclopropyl)buta-1,3-diyn-1-yl)benzo[d]thiazol-2-yl)-2-methyl-2-(methylsulfonyl)butanamide] showed an MIC [1, 4] of 0.5 µg/mL (≈ 1.12 µM), an MIC [2, 5] of 0.25 µg/mL (≈ 0.56 µM) and an MIC [3, 6] of 0.5 µg/mL (≈ 1.12 µM).

For C[C@@](CCc1nc2ccc(C#CC#CC3(O)CCOCC3)cc2s1)(C(=O)NO)S(C)(=O)=O [Example 18, (R)-N-hydroxy-4-(6-((4-hydroxytetrahydro-2H-pyran-4-yl)buta-1,3-diyn-1-yl)benzo[d]thiazol-2-yl)-2-methyl-2-(methylsulfonyl)butanamide], the MIC [1, 4] was 2 µg/mL (≈ 4.2 µM), the MIC [2, 5] was 1 µg/mL (≈ 2.1 µM) and the MIC [3, 6] was 2 µg/mL (≈ 4.2 µM).

For C[C@@](CCc1nc2ccc(C#CC#CC3(N)CC3)cc2s1)(C(=O)NO)S(C)(=O)=O [Example 10, (R)-4-(6-((1-aminocyclopropyl)buta-1,3-diyn-1-yl)benzo[d]thiazol-2-yl)-N-hydroxy-2-methyl-2-(methylsulfonyl)butanamide hydrochloride], the MIC ([1]; ATCC27853, read-out: MIC for P. aeruginosa ATCC27853) was 1 µg/mL, the MIC ([2]; ATCC25922, read-out: MIC for E. coli ATCC25922) was 0.125 µg/mL and the MIC [3] was 0.25 µg/mL.

For C[C@@](CCc1nc2ccc(C#CC#CC3CCNCC3)cc2s1)(C(=O)NO)S(C)(=O)=O [Example 19, (R)-N-hydroxy-2-methyl-2-(methylsulfonyl)-4-(6-(piperidin-4-ylbuta-1,3-diyn-1-yl)benzo[d]thiazol-2-yl)butanamide], the MIC [1, 4] was 4 µg/mL (≈ 8.7 µM), the MIC [2, 5] was 8 µg/mL (≈ 17.4 µM) and the MIC [3, 6] was 16 µg/mL (≈ 34.8 µM).

Compound COc1ccc(-c2ccc3nc(CC[C@](C)(C(=O)NO)S(C)(=O)=O)sc3c2)c(F)c1 [Example 2, (R)-4-(6-(2-fluoro-4-methoxyphenyl)benzo[d]thiazol-2-yl)-N-hydroxy-2-methyl-2-(methylsulfonyl)butanamide] has an MIC [1, 4] of 2 µg/mL (≈ 4.42 µM), an MIC [2, 5] of no more than 0.063 µg/mL and an MIC [3, 6] of 0.25 µg/mL (≈ 0.552 µM).

For C[C@@]1(C#CC#Cc2ccc3nc(CC[C@](C)(C(=O)NO)S(C)(=O)=O)sc3c2)C[C@H]1CO [Example 15, (R)-N-hydroxy-4-(6-(((1R,2R)-2-(hydroxymethyl)-1-methylcyclopropyl)buta-1,3-diyn-1-yl)benzo[d]thiazol-2-yl)-2-methyl-2-(methylsulfonyl)butanamide], the MIC [1, 4] was 1 µg/mL (≈ 2.17 µM), the MIC [2, 5] was 0.125 µg/mL (≈ 0.271 µM) and the MIC [3, 6] was 0.5 µg/mL (≈ 1.09 µM).

C[C@@](CCc1nc2ccc(C#CC#C[C@@H]3CC[C@@H](N)CO3)cc2s1)(C(=O)NO)S(C)(=O)=O [Example 16, (R)-4-(6-(((2S,5R)-5-aminotetrahydro-2H-pyran-2-yl)buta-1,3-diyn-1yl)benzo[d]thiazol-2-yl)-N-hydroxy-2-methyl-2-(methylsulfonyl)butanamide] gave an MIC [1, 4] of 4 µg/mL (≈ 8.41 µM), an MIC [2, 5] of 4 µg/mL (≈ 8.41 µM) and an MIC [3, 6] of 8 µg/mL (≈ 16.8 µM).

In the case of C[C@@](CCc1nc2ccc(C#CC#CCC3(O)COC3)cc2s1)(C(=O)NO)S(C)(=O)=O [Example 14, (R)-N-hydroxy-4-(6-(5-(3-hydroxyoxetan-3-yl)penta-1,3-diyn-1-yl)benzo[d]thiazol-2-yl)-2-methyl-2-(methylsulfonyl)butanamide], the MIC [1, 4] is reported as 1 µg/mL (≈ 2.16 µM), the MIC [2, 5] is reported as 0.5 µg/mL (≈ 1.08 µM) and the MIC [3, 6] is reported as 1 µg/mL (≈ 2.16 µM).

Compound CC(C)(O)C#CC#Cc1ccc2nc(CC[C@](C)(C(=O)NO)S(C)(=O)=O)sc2c1 [Example 4, (R)-N-hydroxy-4-(6-(5-hydroxy-5-methylhexa-1,3-diyn-1-yl)benzo[d]thiazol-2-yl)-2-methyl-2-(methylsulfonyl)butanamide] has an MIC [1, 4] of 1 µg/mL (≈ 2.3 µM), an MIC [2, 5] of 0.5 µg/mL (≈ 1.15 µM) and an MIC [3, 6] of 0.5 µg/mL (≈ 1.15 µM).

In the case of C[C@@](CCc1nc2ccc(C#CC#CC3(CO)CCC3)cc2s1)(C(=O)NO)S(C)(=O)=O [Example 12, (R)-N-hydroxy-4-(6-((1-(hydroxymethyl)cyclobutyl)buta-1,3-diyn-1-yl)benzo[d]thiazol-2-yl)-2-methyl-2-(methylsulfonyl)butanamide], the MIC [1, 4] is reported as 2 µg/mL (≈ 4.34 µM), the MIC [2, 5] is reported as 0.125 µg/mL (≈ 0.271 µM) and the MIC [3, 6] is reported as 0.5 µg/mL (≈ 1.09 µM).

Work on C[C@@](CCc1nc2ccc(C#CC#C[C@@]3(F)C[C@@H]3CO)cc2s1)(C(=O)NO)S(C)(=O)=O (relative stereo) [Example 23, (R)-4-(6-(((1R*,2R*)-1-fluoro-2-(hydroxymethyl)cyclopropyl)buta-1,3-diyn-1-yl)benzo[d]thiazol-2-yl)-N-hydroxy-2-methyl-2-(methylsulfonyl)butanamide] yielded an MIC [1, 4] of 0.5 µg/mL (≈ 1.08 µM), an MIC [2, 5] of no more than 0.063 µg/mL and an MIC [3, 6] of 0.25 µg/mL (≈ 0.538 µM).

In the case of CC(CCc1nc2ccc(C#Cc3ccc(CO)cc3)cc2s1)(C(=O)NO)S(C)(=O)=O (racemic) [RE2, (RS)-N-hydroxy-4-(6-((4-(hydroxymethyl)phenyl)ethynyl)benzo[d]thiazol-2-yl)-2-methyl-2-(methylsulfonyl)butanamide], the MIC [1, 4] is reported as 16 µg/mL (≈ 34.9 µM), the MIC [2, 5] is reported as 0.125 µg/mL (≈ 0.273 µM) and the MIC [3, 6] is reported as 0.5 µg/mL (≈ 1.09 µM).

Work on C[C@@](CCc1nc2ccc(C#CC#CC3(CO)COC3)cc2s1)(C(=O)NO)S(C)(=O)=O [Example 20, (R)-N-hydroxy-4-(6-((3-(hydroxymethyl)oxetan-3-yl)buta-1,3-diyn-1-yl)benzo[d]thiazol-2-yl)-2-methyl-2-(methylsulfonyl)butanamide] yielded an MIC [1, 4] of 1 µg/mL (≈ 2.16 µM), an MIC [2, 5] of 0.5 µg/mL (≈ 1.08 µM) and an MIC [3, 6] of 0.5 µg/mL (≈ 1.08 µM).

For C[C@@](CCc1nc2ccc(C#CC#C[C@H]3C[C@]3(F)CO)cc2s1)(C(=O)NO)S(C)(=O)=O (relative stereo) [Example 24, (R)-4-(6-(((1R*,2R*)-2-fluoro-2-(hydroxymethyl)cyclopropyl)buta-1,3-diyn-1-yl)benzo[d]thiazol-2-yl)-N-hydroxy-2-methyl-2-(methylsulfonyl)butanamide], the MIC [1, 4] was 0.25 µg/mL (≈ 0.538 µM), the MIC [2, 5] was no more than 0.063 µg/mL and the MIC [3, 6] was 0.25 µg/mL (≈ 0.538 µM).
